According to publication PMC11822212, “High-throughput screening identifies Aurora kinase B as a critical therapeutic target for Merkel cell carcinoma” (Nature Communications, 2025):

Columns and labels:
[1] = tested on: VN-MCC cell lines (MCC13, MCC26, UISO); test: qHTS cell viability, VN-MCC cell lines as a group (mean AUC, VN.MCC.avg); format: cell-based, human; settings: for Control-VN-MCC: Control AUC minus VN-MCC AUC (therapeutic window); for VN-MCC_Avg_AUC: mean AUC of VN-MCC cell lines
[2] = tested on: MCC26 cells (VN-MCC); test: qHTS cell viability (CellTiter-Glo, 72 h; primary and follow-up small molecule screen); format: cell-based, human
[3] = tested on: NIH-3T3 cells; test: qHTS cell viability (CellTiter-Glo, 72 h; primary screen), control cell line; format: cell-based, mouse
[4] = tested on: HEK293T cells; test: as above; format: cell-based, human
[5] = tested on: MKL-1 cells (VP-MCC); test: qHTS cell viability (CellTiter-Glo, 72 h; primary and follow-up small molecule screen); format: cell-based, human
[6] = tested on: VP-MCC cell lines (WAGA, MKL-1, MKL-2); test: qHTS cell viability, VP-MCC cell lines as a group (mean AUC, VP.MCC.avg); format: cell-based, human; settings: for Control-VP-MCC: Control AUC minus VP-MCC AUC (therapeutic window); for VP-MCC_Avg_AUC: mean AUC of VP-MCC cell lines
[7] = tested on: control cell lines (HACAT, HEK293T, CRL-7250, NIH-3T3); test: qHTS cell viability, control cell lines as a group (mean AUC, Control.avg); format: cell-based; settings: mean AUC of control cell lines
[8] = tested on: UISO cells (VN-MCC); test: qHTS cell viability (CellTiter-Glo, 72 h; primary and follow-up small molecule screen); format: cell-based, human
[9] = tested on: MCC cell lines (WAGA, MKL-1, MKL-2, MCC13, MCC26, UISO); test: qHTS cell viability, all six MCC cell lines as a group (mean AUC, MCC.avg); format: cell-based, human; settings: mean AUC of six MCC cell lines
[10] = tested on: WAGA cells (VP-MCC); test: qHTS cell viability (CellTiter-Glo, 72 h; primary and follow-up small molecule screen); format: cell-based, human
[11] = tested on: MKL-2 cells (VP-MCC); test: as above; format: cell-based, human
[12] = tested on: six MCC cell lines and four control cell lines; test: qHTS cell viability, all 10 cell lines screened; format: cell-based; settings: Control AUC minus MCC AUC (therapeutic window)
[13] = tested on: CRL-7250 cells; test: qHTS cell viability (CellTiter-Glo, 72 h; primary screen), control cell line; format: cell-based
[14] = tested on: HACAT cells; test: as above; format: cell-based, human
[15] = tested on: MCC13 cells (VN-MCC); test: qHTS cell viability (CellTiter-Glo, 72 h; primary and follow-up small molecule screen); format: cell-based, human
[16] = MIPE library, 11-point DRC, sheet S2E
[17] = area under the dose-response curve, MCC26 cells, AUC<450 = reduced viability
[18] = MIPE library, 11-point DRC, control cell line, sheet S2E
[19] = area under the dose-response curve, NIH3T3 control cells, AUC<450 = reduced viability
[20] = area under the dose-response curve, HEK293T control cells, AUC<450 = reduced viability
[21] = area under the dose-response curve, MKL-1 cells, AUC<450 = reduced viability
[22] = area under the dose-response curve, UISO cells, AUC<450 = reduced viability
[23] = area under the dose-response curve, WAGA cells, AUC<450 = reduced viability
[24] = area under the dose-response curve, MKL-2 cells, AUC<450 = reduced viability
[25] = area under the dose-response curve, CRL7250 control cells, AUC<450 = reduced viability
[26] = area under the dose-response curve, HACAT control cells, AUC<450 = reduced viability
[27] = area under the dose-response curve, MCC13 cells, AUC<450 = reduced viability
[28] = NPC library, 8-point DRC, area under dose-response curve
[29] = NPC library, 8-point DRC, control cell line

Cc1c(C)n(Cc2ccc(-c3ccccc3C(=O)O)cc2)c2ccc(C(=O)N[C@@H](C)c3ccc([N+](=O)[O-])cc3)cc12 [SR1664]
Control-VN-MCC ([1]; MIPE library, sheet S2E): 4.574
VN-MCC_Avg_AUC ([1]; MIPE library, sheet S2E): 472.695
MCC26_AUC [2, 16]: 470.066
MCC26_AUC [2, 17]: 470.066
NIH3T3_AUC [3, 18]: 484.086
NIH3T3_AUC [3, 19]: 484.086
HEK293T_AUC [4, 18]: 470.145
HEK293T_AUC [4, 20]: 470.145
MKL1_AUC [5, 16]: 300.491
MKL1_AUC [5, 21]: 300.491
Control-VP-MCC ([6]; MIPE library, sheet S2E): 161.027
VP-MCC_Avg_AUC ([6]; MIPE library, sheet S2E): 316.242
Control_Avg_AUC ([7]; MIPE library, sheet S2E): 477.269
UISO_AUC [8, 16]: 472.261
UISO_AUC [8, 22]: 472.261
MCC_Avg_AUC ([9]; MIPE library, sheet S2E): 394.468
WAGA_AUC [10, 16]: 329.214
WAGA_AUC [10, 23]: 329.214
MKL2_AUC [11, 16]: 319.019
MKL2_AUC [11, 24]: 319.019
Control-MCC ([12]; MIPE library, sheet S2E): 82.8007
CRL7250_AUC [13, 18]: 475.771
CRL7250_AUC [13, 25]: 475.77
HACAT_AUC [14, 18]: 479.075
HACAT_AUC [14, 26]: 479.075
MCC13_AUC [15, 16]: 475.759
MCC13_AUC [15, 27]: 475.759

CC1=C(/C=C/C(C)=C/C=C/C(C)=C\C(=O)O)C(C)(C)CCC1 [Isotretinoin]
Control-VN-MCC ([1]; MIPE library, sheet S2E): 2.118
VN-MCC_Avg_AUC ([1]; MIPE library, sheet S2E): 463.393
MCC26_AUC [2, 16]: 479.481
MCC26_AUC [2, 17]: 479.481
NIH3T3_AUC [3, 18]: 458.083
NIH3T3_AUC [3, 19]: 458.083
HEK293T_AUC [4, 18]: 469.58
HEK293T_AUC [4, 20]: 469.58
MKL1_AUC [5, 16]: 418.758
MKL1_AUC [5, 21]: 418.758
Control-VP-MCC ([6]; MIPE library, sheet S2E): 50.6007
VP-MCC_Avg_AUC ([6]; MIPE library, sheet S2E): 414.91
Control_Avg_AUC ([7]; MIPE library, sheet S2E): 465.51
UISO_AUC [8, 16]: 453.203
UISO_AUC [8, 22]: 453.203
MCC_Avg_AUC ([9]; MIPE library, sheet S2E): 439.151
WAGA_AUC [10, 16]: 423.315
WAGA_AUC [10, 23]: 423.315
MKL2_AUC [11, 16]: 402.656
MKL2_AUC [11, 24]: 402.656
Control-MCC ([12]; MIPE library, sheet S2E): 26.3592
CRL7250_AUC [13, 18]: 458.179
CRL7250_AUC [13, 25]: 458.179
HACAT_AUC [14, 18]: 476.199
HACAT_AUC [14, 26]: 476.199
MCC13_AUC [15, 16]: 457.493
MCC13_AUC [15, 27]: 457.493

Oc1ccc(C2CNCCc3c2cc(O)c(O)c3Cl)cc1 (centres unmarked) [Fenoldopam]
Control-VN-MCC ([1]; NPC library): 50.8323
VN-MCC_Avg_AUC ([1]; NPC library): 440.711
MCC26_AUC [2, 28]: 437.226
NIH3T3_AUC [3, 29]: 489.56
HEK293T_AUC [4, 29]: 492.113
MKL1_AUC [5, 28]: 451.807
Control-VP-MCC ([6]; NPC library): 43.713
VP-MCC_Avg_AUC ([6]; NPC library): 447.83
Control_Avg_AUC ([7]; NPC library): 491.543
UISO_AUC [8, 28]: 438.854
MCC_Avg_AUC ([9]; NPC library): 444.271
WAGA_AUC [10, 28]: 438.933
MKL2_AUC [11, 28]: 452.751
Control-MCC ([12]; NPC library): 47.2727
CRL7250_AUC [13, 29]: 492.55
HACAT_AUC [14, 29]: 491.95
MCC13_AUC [15, 28]: 446.053
